For one assay, the system named is sigma σ receptor. The experiment in a line: Binding assay σ (non-selective), [3H]DTG, rat cerebral cortex. The conditions noted are these: percent inhibition of control specific binding; compounds tested at 1×10^−6 M. The essentials:
(§1)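 Binding read by scintillation counting. Non-specific component defined by excess unlabelled ligand and removed from total counts. Compounds at 1×10^−6 M.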

The target in a further assay is T1, muscarinic M3 receptor (Homo sapiens, UniProt P20309).
T1 construct: expressed in transfected cells; host or cells: CHO cells
The experiment in a line: Binding assay M3 (h), [3H]4-DAMP, CHO cells. The note with it: read-out: M3 [%]. Summed up: as §1

In assay [1] the target is T2, dopaminergic D2 receptor (Homo sapiens, UniProt P14416). The experiment in a line: Cellular functional assay, dopaminergic D2 receptor (agonism/antagonism). The format is cell-based. The conditions noted are these: HEK293; for activation at 1 µM: agonist effect, percent of control specific agonist response (3 μM dopamine for control), 1×10^−6 M, D2S (h), HEK-293 cells, read-out: D2-ag [%]; for inhibition at 1 µM: read-out: D2-antag. [%]. On the procedure:
(§2) The compounds were tested at the concentration of 1×10^−6M.
(§3) In the Tables ag refers to agonism, and antag to antagonism).
Target sequence in this assay (P14416 whole entry): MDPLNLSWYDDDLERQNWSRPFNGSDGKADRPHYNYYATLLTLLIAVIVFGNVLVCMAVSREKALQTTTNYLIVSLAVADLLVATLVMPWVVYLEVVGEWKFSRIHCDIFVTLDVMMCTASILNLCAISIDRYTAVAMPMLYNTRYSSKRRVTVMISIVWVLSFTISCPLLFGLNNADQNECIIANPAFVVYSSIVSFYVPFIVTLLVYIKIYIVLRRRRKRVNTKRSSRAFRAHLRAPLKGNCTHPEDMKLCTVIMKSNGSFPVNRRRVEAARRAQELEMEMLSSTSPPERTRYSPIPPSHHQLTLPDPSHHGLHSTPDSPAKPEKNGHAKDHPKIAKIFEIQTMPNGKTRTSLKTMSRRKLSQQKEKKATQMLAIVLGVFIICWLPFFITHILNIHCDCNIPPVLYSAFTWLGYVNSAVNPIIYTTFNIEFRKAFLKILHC

The target of assay [2] is serotoninergic 5-HT7 receptor (Homo sapiens, UniProt P34969). The experiment in a line: Cellular functional assay, serotoninergic 5-HT7 receptor (agonism/antagonism). It counts as cell-based. The note with it: for activation at 1 µM: agonist effect, percent of control specific agonist response, compounds tested at 1×10^−6M, read-out: 5-HT7-ag [%]; for inhibition at 1 µM: read-out: 5-HT7-antag. [%]. The procedure:
as §2, §3

The target in the next assay is T3, adrenergic α1A receptor (Homo sapiens, UniProt P35348).
T3 sequence (P35348 1-466): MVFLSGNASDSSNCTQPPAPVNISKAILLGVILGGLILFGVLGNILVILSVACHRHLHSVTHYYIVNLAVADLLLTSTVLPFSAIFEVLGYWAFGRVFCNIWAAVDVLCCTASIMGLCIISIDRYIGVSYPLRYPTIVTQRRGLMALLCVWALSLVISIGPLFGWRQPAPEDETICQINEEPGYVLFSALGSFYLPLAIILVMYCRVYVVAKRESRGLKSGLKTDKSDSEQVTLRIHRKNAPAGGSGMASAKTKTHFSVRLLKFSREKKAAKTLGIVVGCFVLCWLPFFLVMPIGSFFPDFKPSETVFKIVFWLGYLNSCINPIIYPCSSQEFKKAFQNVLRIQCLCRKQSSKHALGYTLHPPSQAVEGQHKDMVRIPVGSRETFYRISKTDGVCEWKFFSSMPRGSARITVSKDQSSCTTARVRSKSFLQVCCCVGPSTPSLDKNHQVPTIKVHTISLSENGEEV
The experiment in a line: Cellular functional assay, adrenergic α1A receptor (agonism/antagonism). It counts as cell-based. The conditions noted are these: for activation at 1 µM: agonist effect, percent of control specific agonist response, compounds tested at 1×10^−6M, read-out: α1A -ag [%]; for inhibition at 1 µM: read-out: α1A -antag. [%]. Summed up:
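Human receptors tested in cell-based functional format for both agonist and antagonist modes. Single compound concentration of 1×10^−6M.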

For assay [3], the target named is T4, adrenergic α2C receptor (Homo sapiens, UniProt P18825).
T4 sequence (P18825 1-462): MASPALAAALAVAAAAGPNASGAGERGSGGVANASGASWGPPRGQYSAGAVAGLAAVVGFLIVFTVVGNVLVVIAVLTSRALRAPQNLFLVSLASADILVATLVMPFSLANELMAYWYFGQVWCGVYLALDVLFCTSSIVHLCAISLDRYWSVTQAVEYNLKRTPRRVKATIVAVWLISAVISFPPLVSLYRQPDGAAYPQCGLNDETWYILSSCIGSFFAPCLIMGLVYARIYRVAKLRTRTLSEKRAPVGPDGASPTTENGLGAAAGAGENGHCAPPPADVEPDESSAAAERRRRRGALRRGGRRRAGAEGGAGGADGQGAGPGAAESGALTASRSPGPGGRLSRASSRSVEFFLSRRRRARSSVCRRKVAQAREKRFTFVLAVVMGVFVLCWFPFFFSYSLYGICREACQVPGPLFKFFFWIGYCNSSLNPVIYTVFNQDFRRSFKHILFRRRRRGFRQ
The experiment in a line: Cellular functional assay, adrenergic α2C receptor (agonism/antagonism). The format is cell-based. The note with it: for activation at 1 µM: agonist effect, percent of control specific agonist response, compounds tested at 1×10^−6M, read-out: α2C −ag [%]; for inhibition at 1 µM: read-out: α2C −antag. [%]. The procedure: as §2, §3

Assay [4] addresses T4, adrenergic α2C receptor. The experiment in a line: Binding assay α2C (h), [3H]RX 821002, CHO cells. Set-up: expressed in transfected cells; host or cells: CHO cells. The conditions noted are these: read-out: α2C [%]. The essentials:
as §1

Assay [5] deals with T2, dopaminergic D2 receptor. The experiment in a line: Binding assay D2S (h), [3H]methyl-spiperone, HEK-293 cells. Also on record: expressed in transfected cells; host or cells: HEK-293 cells. The conditions noted are these: read-out: D2 [%]. The essentials:
as §1
Target sequence in this assay (P14416 1-414 isoform P14416-2): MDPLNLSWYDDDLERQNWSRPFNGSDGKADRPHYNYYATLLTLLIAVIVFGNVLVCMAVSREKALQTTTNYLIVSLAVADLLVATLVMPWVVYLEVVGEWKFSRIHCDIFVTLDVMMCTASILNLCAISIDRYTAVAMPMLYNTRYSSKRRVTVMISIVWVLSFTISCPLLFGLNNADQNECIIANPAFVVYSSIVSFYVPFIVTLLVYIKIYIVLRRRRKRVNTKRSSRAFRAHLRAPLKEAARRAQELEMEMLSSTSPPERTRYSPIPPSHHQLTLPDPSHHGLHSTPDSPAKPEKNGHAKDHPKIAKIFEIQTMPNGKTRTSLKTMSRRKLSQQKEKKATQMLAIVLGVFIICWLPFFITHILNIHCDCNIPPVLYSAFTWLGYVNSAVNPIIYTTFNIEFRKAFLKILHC

Assay [6] concerns the target T5, serotoninergic 5-HT1A receptor (Homo sapiens, UniProt P08908).
T5 sequence (P08908 1-422): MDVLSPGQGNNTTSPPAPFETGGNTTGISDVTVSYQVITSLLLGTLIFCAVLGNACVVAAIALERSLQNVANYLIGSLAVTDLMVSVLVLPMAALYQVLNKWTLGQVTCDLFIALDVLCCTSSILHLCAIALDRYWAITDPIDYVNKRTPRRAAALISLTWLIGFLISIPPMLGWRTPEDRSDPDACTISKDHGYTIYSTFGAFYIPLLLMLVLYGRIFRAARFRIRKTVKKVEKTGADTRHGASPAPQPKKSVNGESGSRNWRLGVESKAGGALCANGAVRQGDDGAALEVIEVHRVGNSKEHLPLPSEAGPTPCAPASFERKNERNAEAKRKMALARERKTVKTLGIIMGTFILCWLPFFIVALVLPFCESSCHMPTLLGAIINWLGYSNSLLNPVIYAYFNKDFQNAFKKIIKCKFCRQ
The experiment in a line: Binding assay 5-HT1A (h), [3H]8-OH-DPAT, HEK-293 cells. Set-up: expressed in transfected cells; host or cells: HEK-293 cells. The note with it: read-out: 5-HT1A. The essentials: as §1

For assay [7], the target named is histaminergic H1 receptor (Homo sapiens, UniProt P35367). The experiment in a line: Binding assay H1 (h), [3H]pyrilamine, HEK-293 cells. Also on record: expressed in transfected cells; host or cells: HEK-293 cells. The note with it: read-out: H1 [%]. The essentials:
as §1

T1 sequence (P20309 whole entry): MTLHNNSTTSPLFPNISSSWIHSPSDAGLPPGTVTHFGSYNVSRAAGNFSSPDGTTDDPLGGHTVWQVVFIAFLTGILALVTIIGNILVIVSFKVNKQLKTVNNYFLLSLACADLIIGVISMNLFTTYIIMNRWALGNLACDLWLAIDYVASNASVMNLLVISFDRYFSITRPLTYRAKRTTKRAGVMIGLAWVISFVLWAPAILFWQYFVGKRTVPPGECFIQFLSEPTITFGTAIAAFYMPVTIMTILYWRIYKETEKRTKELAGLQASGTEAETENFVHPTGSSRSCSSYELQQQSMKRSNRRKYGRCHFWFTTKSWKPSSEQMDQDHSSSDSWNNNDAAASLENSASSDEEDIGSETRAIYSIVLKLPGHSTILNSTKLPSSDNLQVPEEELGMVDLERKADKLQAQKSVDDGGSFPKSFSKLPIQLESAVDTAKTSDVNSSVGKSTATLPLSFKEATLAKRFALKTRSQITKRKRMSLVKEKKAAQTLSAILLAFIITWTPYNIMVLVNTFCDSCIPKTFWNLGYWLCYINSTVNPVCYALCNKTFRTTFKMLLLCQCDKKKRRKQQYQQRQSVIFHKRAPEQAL
Chain of histaminergic H1 receptor (P35367 whole entry): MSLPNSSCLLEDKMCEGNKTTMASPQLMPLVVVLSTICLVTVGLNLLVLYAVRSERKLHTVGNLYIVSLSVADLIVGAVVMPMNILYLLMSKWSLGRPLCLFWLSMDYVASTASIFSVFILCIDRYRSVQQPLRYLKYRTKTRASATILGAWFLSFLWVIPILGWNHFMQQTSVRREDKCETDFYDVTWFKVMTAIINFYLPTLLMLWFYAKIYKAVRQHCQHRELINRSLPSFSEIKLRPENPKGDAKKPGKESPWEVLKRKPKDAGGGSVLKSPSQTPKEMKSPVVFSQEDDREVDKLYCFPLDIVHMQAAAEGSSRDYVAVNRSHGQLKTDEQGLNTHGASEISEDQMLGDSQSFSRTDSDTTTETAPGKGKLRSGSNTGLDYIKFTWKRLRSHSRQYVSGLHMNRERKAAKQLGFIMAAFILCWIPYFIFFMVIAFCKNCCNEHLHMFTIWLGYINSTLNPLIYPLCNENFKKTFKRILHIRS
Chain of serotoninergic 5-HT7 receptor (P34969 whole entry): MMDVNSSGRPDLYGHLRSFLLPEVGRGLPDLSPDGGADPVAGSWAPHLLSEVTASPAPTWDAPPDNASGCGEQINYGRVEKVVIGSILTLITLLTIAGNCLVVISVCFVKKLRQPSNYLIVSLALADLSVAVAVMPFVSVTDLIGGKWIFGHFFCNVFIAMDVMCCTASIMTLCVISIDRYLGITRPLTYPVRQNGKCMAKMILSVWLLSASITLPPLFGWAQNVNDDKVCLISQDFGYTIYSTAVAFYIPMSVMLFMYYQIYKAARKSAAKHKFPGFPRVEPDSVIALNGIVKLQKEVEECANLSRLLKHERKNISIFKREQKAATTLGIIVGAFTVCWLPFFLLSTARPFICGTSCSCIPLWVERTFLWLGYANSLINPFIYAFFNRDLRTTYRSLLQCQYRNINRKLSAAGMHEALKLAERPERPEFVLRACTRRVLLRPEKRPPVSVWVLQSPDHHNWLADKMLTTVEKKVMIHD

Take `Cc1c(S(=O)(=O)NCCCN2CCC(c3noc4cc(F)ccc34)CC2)sc2ccc(F)cc12` [Compound 102, 5-Fluoro-N-[3-[4-(6-fluoro-1,2-benzoxazol-3-yl)piperidin-1-yl]propyl]-3-methylbenzothiophene-2-sulphonamide]: the “σ [%]” value in the assay with sigma σ receptor stood at 74%. Also, the inhibition at 1 µM on muscarinic M3 receptor turned out to be 18%; on dopaminergic D2 receptor [1] it was 85%; in assay [2], 94%; on adrenergic α1A receptor, 100%; at adrenergic α2C receptor [3], 14%; at adrenergic α2C receptor [4], 101%. Moreover, the figures for the inhibition at 1 µM (at dopaminergic D2 receptor [5]; in assay [6]; in [7]) were 100%, 92% and 94%, respectively. Besides, the activation at 1 µM on dopaminergic D2 receptor [1] is 1%; in [2], -2%; on adrenergic α1A receptor it was 0%; at adrenergic α2C receptor [3], -7%.

As for `O=S(=O)(NCCCCN1CCN(c2cccc3[nH]ccc23)CC1)c1cccc(Cl)c1` [Compound 113, N-[4-[4-(1H-Indol-4-yl)piperazin-1-yl]butyl]-3-chlorobenzenesulphonamide], the “σ [%]” value in the assay on sigma σ receptor is recorded as 92%. Moreover, the inhibition at 1 µM at muscarinic M3 receptor was found to be 29%; on dopaminergic D2 receptor [1] it was 94%; in assay [2] it was 45%; at adrenergic α1A receptor it was 100%; on adrenergic α2C receptor [3], 53%; on adrenergic α2C receptor [4], 99%. Besides, the inhibition at 1 µM at dopaminergic D2 receptor [5] is 98%; in assay [6], 100%; in [7], 60%. Further, the activation at 1 µM on dopaminergic D2 receptor [1] is 42%; in assay [2], 9%; on adrenergic α1A receptor, 1%; at adrenergic α2C receptor [3], 13%.

For the compound `O=S(=O)(NCCCCN1CCN(c2nsc3ccccc23)CC1)c1cc2ccccc2s1` [Compound 239, N-[4-[4-(1,2-Benzothiazol-3-yl)piperazin-1-yl]butyl]benzothiophene-2-sulphonamide], the “σ [%]” value in the assay with sigma σ receptor was 69%. Also, the inhibition at 1 µM came out at 9% at muscarinic M3 receptor; 84% at dopaminergic D2 receptor [1]; 81% in assay [2]; 100% at adrenergic α1A receptor; 33% on adrenergic α2C receptor [3]; 105% at adrenergic α2C receptor [4]. Further, the inhibition at 1 µM stood at 102% on dopaminergic D2 receptor [5], 98% in assay [6] and 98% in [7]. The activation at 1 µM on dopaminergic D2 receptor [1] is 13%; in assay [2], -2%; at adrenergic α1A receptor it was -1%; on adrenergic α2C receptor [3], 3%.

In the case of `O=S(=O)(NCCCCN1CCN(c2nsc3ccccc23)CC1)c1csc2ccccc12` [Compound 240, N-[4-[4-(1,2-Benzothiazol-3-yl)piperazin-1-yl]butyl]benzothiophene-3-sulphonamide], the “σ [%]” value in the assay with sigma σ receptor amounted to 44%. Moreover, the inhibition at 1 µM at muscarinic M3 receptor worked out at 15%; on dopaminergic D2 receptor [1] it was 83%; in assay [2], 98%; at adrenergic α1A receptor, 100%; on adrenergic α2C receptor [3], 35%; at adrenergic α2C receptor [4], 100%. The figures for the inhibition at 1 µM (at dopaminergic D2 receptor [5]; in assay [6]; in assay [7]) were 101%, 98% and 92%, respectively. Besides, the activation at 1 µM on dopaminergic D2 receptor [1] is 3%; in assay [2] it was -2%; on adrenergic α1A receptor it was 0%; on adrenergic α2C receptor [3] it was 13%.

In the case of `O=S(=O)(NCCCCN1CCN(c2nsc3ccccc23)CC1)c1cc2ccc(Cl)cc2s1` [Compound 241, N-[4-[4-(1,2-Benzothiazol-3-yl)piperazin-1-yl]butyl]-6-chlorobenzothiophene-2-sulphonamide], the “σ [%]” value in the assay on sigma σ receptor is listed as 51%. Also, the inhibition at 1 µM at muscarinic M3 receptor was determined as 4%; on dopaminergic D2 receptor [1], 82%; in assay [2] it was 83%; at adrenergic α1A receptor, 95%; at adrenergic α2C receptor [3], 14%; at adrenergic α2C receptor [4], 98%. The figures for the inhibition at 1 µM (on dopaminergic D2 receptor [5]; in [6]; in assay [7]) were 100%, 98% and 97%, respectively. Moreover, the activation at 1 µM at dopaminergic D2 receptor [1] is 6%; in assay [2], -2%; on adrenergic α1A receptor, 0%; at adrenergic α2C receptor [3] it was -1%.

Consider `O=S(=O)(NCCCCN1CCN(c2noc3ccccc23)CC1)c1cc2ccc(Cl)cc2s1` [Compound 288, N-[4-[4-(1,2-Benzoxazol-3-yl)piperazin-1-yl]butyl]-6-chlorobenzothiophene-2-sulphonamide], for which the “σ [%]” value in the assay with sigma σ receptor came out at 45%. For the same compound, the inhibition at 1 µM turned out to be 3% at muscarinic M3 receptor; 79% at dopaminergic D2 receptor [1]; 92% in assay [2]; 97% on adrenergic α1A receptor; 13% on adrenergic α2C receptor [3]; 109% at adrenergic α2C receptor [4]. For the same compound, the figures for the inhibition at 1 µM (on dopaminergic D2 receptor [5]; in assay [6]; in assay [7]) were 103%, 86% and 94%, respectively. For the same compound, the activation at 1 µM on dopaminergic D2 receptor [1] is 5%; in assay [2], -2%; on adrenergic α1A receptor, 0%; at adrenergic α2C receptor [3], 1%.

Consider `O=S(=O)(NCCCCN1CCC(c2noc3cc(F)ccc23)CC1)c1ccc(Br)cc1` [Compound 298, 4-Bromo-N-[4-[4-(6-fluoro-1,2-benzoxazol-3-yl)piperidin-1-yl]butyl]benzenesulphonamide], for which, in the assay on sigma σ receptor, the “σ [%]” value worked out at 68%. Moreover, the inhibition at 1 µM on muscarinic M3 receptor was 19%; on dopaminergic D2 receptor [1], 84%; in assay [2] it was 98%; on adrenergic α1A receptor, 100%; on adrenergic α2C receptor [3], 39%; on adrenergic α2C receptor [4] it was 98%. Besides, the inhibition at 1 µM at dopaminergic D2 receptor [5] came out at 99%; in assay [6], 67%; in assay [7] it was 90%. For the same compound, the activation at 1 µM at dopaminergic D2 receptor [1] was 12%; in assay [2] it was -3%; at adrenergic α1A receptor it was 1%; at adrenergic α2C receptor [3], -4%.

Values taken from patent US8822517B2, “Arylosulfonamides for the treatment of CNS diseases” (Adamed SP. Z O.O., priority 2010, dated 2014).
